The source of these data is publication PMC11264232, “Are the metal identity and stoichiometry of metal complexes important for colchicine site binding and inhibition of tubulin polymerization?” (Dalton Transactions (Cambridge, England : 2003), 2024).

Several values for one entry are separate records, joined by “and”; a condition that tells them apart may be missing. Equal entries are not always repeated. Where two headings read alike, the source gives them in different places. Marks after values point to notes of the source that are not given here.

Series [1] can be described thus: pKa by pH-potentiometric titration. The settings on record: 30% (v/v) DMSO/H2O, 25.0 °C, I = 0.1 M (KCl), anoxic. Format: physicochemical. As for the experimental part: Therefore, the proton dissociation constants (pKa) of the proligands HL^1–HL^3 were determined under anoxic conditions by pH-potentiometric titrations (Fig. S14 in the ESI ^†). As this method requires relatively high compound concentrations (>1 mM), the measurements were performed in 30% (v/v) DMSO to achieve the required solubility. Three pKa values were determined for the proligands HL^1 and HL^2, whereas only two constants, as expected, were obtained for phenyl derivative HL^3 (Table 3). The constants obtained were assigned to the deprotonation NmorpholiniumH^+ (NmorphH^+), NhydrazineH (NhydrH) and OH moieties for HL^1 and HL^2, and to the NmorphH^+ and NhydrH for HL^3, respectively. It should be noted that we could not determine pKa values for the pyridinium group as its deprotonation in all three instances took place at fairly low pH values (pH < 2) due to the electron withdrawing effect of the protonated morpholinium moiety. The determined pKa values indicate that these compounds are in their neutral HL form at pH 7.4 and only a minor fraction (1–3%) is protonated ((HL)H^+) at the morpholinium nitrogen (Table 3).

Series [2] has as its system A549 human lung adenocarcinoma cells. The series can be described thus: MTT viability assay, 24 h. The settings on record: Homo sapiens, A549, 24 h, read-out: IC50 values A549.
Procedure: (§2) We wanted to compare the cytotoxicity of proligands HL^1–HL^3 and of their Co(III) and Fe(III) complexes 1, 2 and 4, 5 on cell lines originating from the same tissue, so human lung carcinoma A549 cells and lung fibroblast MRC-5 cells were subjected to 24 h treatments.
(§3) The biological effects of selected metal complexes (1, 2, 4 and 5) and of their proligands (HL^1, HL^2 and HL^3) were tested more extensively on A549 human lung adenocarcinoma cells and on MRC-5 human lung fibroblast cells. Both cell lines were obtained from ATCC and maintained in DMEM cell culture media containing 1.0 g L^−1 glucose (Biosera, Nuaille, France) complemented with 10% fetal bovine serum (FBS), 2 mM L-glutamine, 0.01% streptomycin and 0.005% penicillin and were cultured under standard conditions in a 37 °C incubator at 5% CO2 and 95% humidity. The viability of A549 and of MRC-5 fibroblast cells upon exposure to the selected metal–ligand complexes and ligands were evaluated by the MTT assay. For this, 10 000 cells per well were seeded into 96-well plates and left to grow. On the next day the cells were exposed to 0, 5, 10, 20, 40 or 80 μM of each compound or to an equivalent volume of DMSO for 24 h. After the treatments, cells were washed with PBS and then were incubated with 0.5 mg mL^−1 MTT reagent (Sigma-Aldrich, St Louis, Missouri, USA) for 1 h at 37 °C. Finally, 100 μL of DMSO (Molar Chemicals, Halásztelek, Hungary) was added to each well, and the absorbance of samples was measured at 570 nm using a Synergy HTX plate reader (BioTek, Winooski, Vermont, USA). The viability measurements were repeated three times using 3 independent biological replicates.
The subject of series [3] is MRC-5 human lung fibroblast cells. Briefly: MTT viability assay, 24 h. The settings on record: Homo sapiens, MRC5, 24 h, read-out: IC50 values MRC-5. A general note: Formazan colour is commonly taken as a measure of viable cells.
Procedure: as §2, §3
Series [4] is described as follows: n-octanol/water partitioning (shake-flask), log D. The settings on record: n-octanol/buffered aqueous solution, pH 6.
Series [5] is described as follows: Cyclic voltammetry in DMSO/nBu4NPF6. The note with it: scan rate 100 mV s^−1. Format: physicochemical. The method, then:
Cyclic voltammetric experiments with 0.5 mM solutions of 1–3 in 0.1 M nBu4NPF6 (puriss quality from Fluka (Schwerte, Germany), dried under reduced pressure at 70 °C for 24 h before use) supporting electrolyte in DMSO (SeccoSolv max. 0.025% H2O, Merck) were performed under argon atmosphere using a three-electrode setup with a platinum disk or a glassy carbon disk working electrode (from Ionode, Australia), platinum wire as a counter electrode, and silver wire as a pseudo reference electrode. All potentials in voltammetric studies were quoted vs. ferricenium/ferrocene (Fc^+/Fc) redox couple. A Heka PG310USB (Lambrecht, Germany) potentiostat with a PotMaster 2.73 software package served for the potential control in voltammetric studies. In situ ultraviolet-visible-near-infrared (UV–Vis–NIR) spectroscopic and spectroelectrochemical measurements were performed on a spectrometer Avantes (Model AvaSpec-2048_14-USB2) in 1 cm quartz cuvette or the spectroelectrochemical cell kit ([…]3) with the Pt-microstructured honeycomb working electrode, purchased from Pine Research Instrumentation (Lyon, France). The cell was positioned in the CUV-UV Cuvette Holder (Ocean Optics, Ostfildern, Germany) connected to the diode-array UV–Vis–NIR spectrometer by optical fibres. UV–Vis–NIR spectra were processed using the AvaSoft 7.7 software package. Halogen and deuterium lamps were used as light sources (Avantes, Model AvaLight-DH-S-BAL, Apeldoorn, The Netherlands). EPR spectra were measured with a X-band cw-EPR spectrometers EMX and EMX plus (Bruker) at room temperature or 100 K. Spectroelectrochemical experiments were performed in a flat cell equipped with a Pt mesh working electrode using nBu4NPF6/DMSO electrolyte. Measurements in frozen solvent glass were done in MeCN/DMF 1 : 1 v/v. Complexes 4 and 5 were dissolved under ambient conditions, and complex 3 was reduced with a stoichiometric equivalent of cobaltocene in a N2 glovebox (N2 < 2 ppm, H2O < 1 ppm). The MeCN/DMF solutions were flash frozen in liquid N2 prior to transfer to the N2 flow cryostat precooled at 100 K inside the cavity of the EPR resonator. EPR spectra were analyzed with the Easyspin toolbox,[75] running on Matlab.

Another series has as its system purified tubulin. Briefly: Inhibition of tubulin polymerization. The class given is biochemical. The note with it: read-out: Inhibition of tubulin polymerization IC50 ± SD. The text has this: As a reference for comparison, combretastatin A-4 (CA-4) and Cu(HL^1)Cl2 were used.
(§1) The methods used for determination of the IC50 values for tubulin assembly and inhibition of [^3H]colchicine binding were as described previously.[77]

For series [6], the system named is tubulin (colchicine site). The series can be described thus: Inhibition of [3H]colchicine binding to tubulin. The settings on record: tubulin 0.5 μM, [3H]colchicine 5 μM.
Excerpt: as §1

Take `S=C(N/N=C/c1cccc(CN2CCOCC2)n1)Nc1ccccc1` [HL^3, 6-morpholinomethyl-2-formylpyridine 4N-phenyl-3-thiosemicarbazone]: the pKa was found to be 10.44 ± 0.03 in series [1] (read-out: pKa (NhydrH)) and 5.55 ± 0.02 in series [1] (read-out: pKa (NmorphH^+)). Further, the IC50 in series [2] and in series [3] was more than 80 µM in each case. The logD (usually lipophilicity at a set pH, counting ionised and neutral species) in series [4] was 2.06.

For the compound `Cc1cc(NC([S-])=NN=Cc2cccc(C[NH+]3CCOCC3)n2)cc(C)c1O.[Cl-].[Cl-].[Pd+2]` [Complex 8, [Pd^II(HL^1)Cl]Cl], in series [5], the “1st oxidation potential (peak potential Ep)” value was 0.28 volts vs. Fc^+/Fc and 0.28^i* volts vs. Fc^+/Fc; the “1st reduction potential (E1/2 or Ep)” value is −0.91^q volts vs. Fc^+/Fc; the “2nd reduction potential (E1/2 or Ep)” value was −1.28^q volts vs. Fc^+/Fc. In addition, the half-maximal inhibitory concentration (IC50) (commonly the point on the concentration scale where inhibition reaches its midpoint) with purified tubulin came to 6.5 ± 1 µM. In addition, in series [6] (5 μM inhibitor), the “Inhibition of colchicine binding, % inhibition ± SD” value (shortened to “Inhibition … % inhibition ± SD”) came out at 13 ± 5%. In addition, in series [6] (25 μM inhibitor), the “Inhibition … % inhibition ± SD” value was found to be 97 ± 1%.

For `Cc1cc(NC(=S)N/N=C/c2cccc(CN3CCOCC3)n2)cc(C)c1O` [HL^1, 6-morpholinomethyl-2-formylpyridine 4N-(4-hydroxy-3,5-dimethylphenyl)-3-thiosemicarbazone], the figures for the pKa in series [1] (read-out: pKa (NhydrH)), in series [1] (read-out: pKa (NmorphH^+)) and in series [1] (read-out: pKa (OH)) were 10.44 ± 0.03, 5.54 ± 0.03 and 12.12 ± 0.02, respectively. Moreover, the IC50 was 72.8 ± 1.22 µM in series [2] and more than 80 µM in series [3]. The compound further registered a logD in series [4] of 1.23.

Turning to `C/C(=N\NC(=S)Nc1cc(C)c(O)c(C)c1)c1cccc(CN2CCOCC2)n1` [HL^2, 6-morpholinomethyl-2-acetylpyridine 4N-(4-hydroxy-3,5-dimethylphenyl)-3-thiosemicarbazone], the pKa in series [1] (read-out: pKa (NhydrH)) came out at 10.41 ± 0.03; in series [1] (read-out: pKa (NmorphH^+)) it was 5.85 ± 0.04; in series [1] (read-out: pKa (OH)), 12.23 ± 0.02. In addition, the IC50 in series [2] and in series [3] was more than 80 µM in each case. In addition, in series [4], the logD amounted to 1.5.

For `COc1ccc(/C=C\c2cc(OC)c(OC)c(OC)c2)cc1O` [C-A4, combretastatin A-4, reference compound], the IC50 in the series with purified tubulin was determined as […]. Further, the “Inhibition … % inhibition ± SD” value in series [6] (5 μM inhibitor) was 97 ± 0.5%.

For `Cc1cc(NC([S-])=NN=Cc2cccc(CN3CCOCC3)n2)cc(C)c1O.[Cl-].[Ni+2]` [Complex 6, [Ni^II(L^1)]Cl], in series [5], the “1st oxidation potential (peak potential Ep)” value is 0.12 volts vs. Fc^+/Fc and 0.12^i* volts vs. Fc^+/Fc; the “1st reduction potential (E1/2 or Ep)” value was −1.29 volts vs. Fc^+/Fc and −1.29^q volts vs. Fc^+/Fc; the “2nd reduction potential (E1/2 or Ep)” value was −1.87 volts vs. Fc^+/Fc and −1.87^q volts vs. Fc^+/Fc. The half-inhibitory concentration (IC50) with purified tubulin was more than 20 µM.
